{"source": "patent US20240188613A1", "about": "“SWEETENER COMPOSITIONS COMPRISING MOGROSIDES AND USES THEREOF” (Firmenich Incorporated, priority 2021, published 2024)", "type_in_all_cases": "in vivo, human", "key": {"[1]": {"assay": "Additional sensory testing for vanilla milk (panel of flavorists)", "conditions": "400 ppm mogrosides, 0 to 10 scale, letter in parentheses = Duncan's test group", "method": "(§1) A panel of flavorists at three locations evaluated vanilla milk containing various mogrosides at a concentration of 400 ppm mogrosides for in-mouth attributes (peak sweetness, upfront sweetness, bitterness, and mouthfeel/thickness) and aftertaste attributes (sweet taste linger), on a 0 to 10 scale. The in-mouth attributes were evaluated while holding the sample in the mouth, while the aftertaste attributes were evaluated after expectoration. The data was analyzed using Duncan's new multiple range test and the scores are provided in the data below in parentheses."}, "[2]": {"assay": "Sensory testing for lemon-lime carbonated soft drink (panel of volunteers)", "method": "(§2) A panel of volunteers evaluated isomogroside IVE for in-mouth attributes (sweetness, delayed sweetness, sourness, bitterness, global flavor intensity, thickness/body, and astringence) and aftertaste (AT) attribtues (lingering sweetness, overall off-taste intensity, licorice off-tast, bitterness off-taste, and mouth coating) on a 10-point scale. Two replicate sessions were conducted, with a 20 minute break between sessions. There was a 90 second delay between samples within a session. Panelists evaluated all samples in a first session and evaluated the samples again a second time in a second session. Control samples of Rebaudioside M (Reb M) were evaluated during all sessions as a control. Mogroside V was also evaluated and sensory data for mogroside V is provided.\n(§3) Data analysis was performed using 2-way analysis of variance (ANOVA) with interaction using Tukey's HSD test. The data was normalized for each attribute according to average scores for Reb M.\nA panel of volunteers evaluated the isomogroside IVE-containing lemon-lime carbonated soft drink for in-mouth attributes and aftertaste attributes according to the methods described in Example 1 above."}, "[3]": {"assay": "Additional sensory testing for lemon-flavored (lemon-lime) beverage (panel of flavorists)", "conditions": "600 ppm mogrosides, 0 to 10 scale, letter in parentheses = Duncan's test group", "method": "as §1, with “lemon-lime beverage” for “vanilla milk containing”, “600” for “400”, “expectoration.” for “expectoration. The data was analyzed using Duncan's new multiple range test and the scores are provided in the data below in parentheses.”"}, "[4]": {"assay": "Expert panelists' comparison of mogrosides with Stevia", "conditions": "\"Examples 4 and 5\", in words"}, "[5]": {"assay": "Sensory testing for apple drink (panel of volunteers)", "conditions": "for Bitterness / Delayed Sweetness / Global Flavor Intensity / Sweetness / Thickness/Body: in-mouth, normalized to Reb M", "method": "as §2, §3"}, "[6]": {"assay": "Sensory testing for sparkling orange beverage (panel of volunteers)", "method": "as §2, §3\nA panel of volunteers evaluated a sparkling orange beverage containing isomogroside IVE for in-mouth attributes and aftertaste attributes according to the methods described in Example 1 above."}, "[7]": {"assay": "Sensory testing for vanilla milk (panel of volunteers)", "conditions": "for Licorice Aftertaste / Lingering Sweetness / Mouth Coating / Overall Off-Taste: aftertaste", "method": "as §2, §3\nA panel of volunteers evaluated vanilla milk containing isomogroside IVE for in-mouth attributes and aftertaste attributes according to the methods described in Example 1 above."}, "[8]": {"conditions": "600 ppm (mogroside V 600 mg [sic]), aftertaste, 10-point scale, normalized"}, "[9]": {"conditions": "600 ppm (mogroside V 600 mg [sic]), in-mouth, 10-point scale, normalized"}, "[10]": {"conditions": "250 ppm (mogroside V 250 mg [sic]), aftertaste, 10-point scale"}, "[11]": {"conditions": "250 ppm (mogroside V 250 mg [sic]), 10-point scale"}, "[12]": {"conditions": "500 ppm (mogroside V 500 mg [sic]), aftertaste, 10-point scale"}, "[13]": {"conditions": "500 ppm (mogroside V 500 mg [sic]), 10-point scale"}, "[14]": {"conditions": "same concentration of Reb M, in words"}, "[15]": {"conditions": "250 ppm (mogroside V 250 mg [sic]), aftertaste, 10-point scale, normalized"}, "[16]": {"conditions": "250 ppm (mogroside V 250 mg [sic]), in-mouth, 10-point scale, normalized"}, "[17]": {"conditions": "200 ppm (mogroside V 200 mg [sic]), 10-point scale, normalized"}, "[18]": {"conditions": "200 ppm (mogroside V 200 mg [sic]), in-mouth, 10-point scale, normalized"}, "[19]": {"conditions": "400 ppm (mogroside V 400 mg [sic]), 10-point scale, normalized"}, "[20]": {"conditions": "400 ppm (mogroside V 400 mg [sic]), in-mouth, 10-point scale, normalized"}}}
{"smiles": "C[C@H](CC[C@@H](O[C@@H]1O[C@H](CO)[C@@H](O)[C@H](O)[C@H]1O[C@@H]1O[C@H](CO)[C@@H](O)[C@H](O)[C@H]1O)C(C)(C)O)[C@@]1(C)CC[C@@]2(C)[C@@H]3CC=C4[C@@H](CC[C@H](O[C@@H]5O[C@H](CO)[C@@H](O[C@@H]6O[C@H](CO)[C@@H](O)[C@H](O)[C@H]6O)[C@H](O)[C@H]5O)C4(C)C)[C@]3(C)[C@H](O)C[C@@]21C", "note": "[isomogroside IVE]", "values": [{"measurement": "Sweet Linger", "setting": "[1]; aftertaste after expectoration", "value": "4.563 (b)"}, {"measurement": "Bitterness", "setting": "[1]; in-mouth", "value": "1.313 (ab)"}, {"measurement": "Mouthfeel/Thickness", "setting": "[1]; in-mouth", "value": "4.125 (b)"}, {"measurement": "Peak Sweetness", "setting": "[1]; in-mouth", "value": "5.938 (c)"}, {"measurement": "Upfront Sweetness", "setting": "[1]; in-mouth", "value": "5.125 (b)"}, {"measurement": "Bitterness Aftertaste", "setting": "[2]; [8]", "value": 1.8}, {"measurement": "Licorice Aftertaste", "setting": "[2]; [8]", "value": 2.9}, {"measurement": "Lingering Sweetness", "setting": "[2]; [8]", "value": 4.2}, {"measurement": "Overall Off-Taste", "setting": "[2]; [8]", "value": 3.8}, {"measurement": "Bitterness", "setting": "[2]; [9]", "value": 2.2}, {"measurement": "Delayed Sweetness", "setting": "[2]; [9]", "value": 3.5}, {"measurement": "Global Flavor Intensity", "setting": "[2]; [9]", "value": 5.0}, {"measurement": "Sweetness", "setting": "[2]; [9]", "value": 5.0}, {"measurement": "Sweetness compared with Reb M", "setting": "[2]; 600 ppm, in words", "value": "overall lower sweetness"}, {"measurement": "Global flavor intensity compared with mogroside V", "setting": "[2]; in words", "value": "higher global flavor intensity"}, {"measurement": "Sweetness compared with mogroside V", "setting": "[2]; in words", "value": "comparable sweetness"}, {"measurement": "Sweet Linger", "setting": "[3]; aftertaste after expectoration", "value": "3.429 (c)"}, {"measurement": "Bitterness", "setting": "[3]; in-mouth", "value": "1.857 (a)"}, {"measurement": "Mouthfeel/Thickness", "setting": "[3]; in-mouth", "value": "2.714 (b)"}, {"measurement": "Peak Sweetness", "setting": "[3]; in-mouth", "value": "4.857 (c)"}, {"measurement": "Upfront Sweetness", "setting": "[3]; in-mouth", "value": "3.571 (b)"}, {"measurement": "Bitter aftertaste compared with Stevia", "setting": "[4]", "value": "lower bitter aftertaste"}, {"measurement": "Licorice aftertaste compared with Stevia", "setting": "[4]", "value": "lower licorice aftertaste"}, {"measurement": "Mouthfeel compared with Stevia", "setting": "[4]", "value": "better mouthfeel"}, {"measurement": "Bitterness Aftertaste", "setting": "[5]; [10]", "value": 1.5}, {"measurement": "Licorice Aftertaste", "setting": "[5]; [10]", "value": 2.4}, {"measurement": "Lingering Sweetness", "setting": "[5]; [10]", "value": 3.0}, {"measurement": "Overall Off-Taste", "setting": "[5]; [10]", "value": 3.2}, {"measurement": "Bitterness", "setting": "[5]; [11]", "value": 1.4}, {"measurement": "Delayed Sweetness", "setting": "[5]; [11]", "value": 2.1}, {"measurement": "Global Flavor Intensity", "setting": "[5]; [11]", "value": 3.3}, {"measurement": "Sweetness", "setting": "[5]; [11]", "value": 3.9}, {"measurement": "Thickness/Body", "setting": "[5]; [11]", "value": 1.6}, {"measurement": "Licorice Aftertaste", "setting": "[5]; [12]", "value": 2.2}, {"measurement": "Lingering Sweetness", "setting": "[5]; [12]", "value": 3.4}, {"measurement": "Mouth Coating", "setting": "[5]; [12]", "value": 2.0}, {"measurement": "Overall Off-Taste", "setting": "[5]; [12]", "value": 3.1}, {"measurement": "Bitterness", "setting": "[5]; [13]", "value": 1.9}, {"measurement": "Delayed Sweetness", "setting": "[5]; [13]", "value": 2.6}, {"measurement": "Global Flavor Intensity", "setting": "[5]; [13]", "value": 3.5}, {"measurement": "Sweetness", "setting": "[5]; [13]", "value": 4.5}, {"measurement": "Thickness/Body", "setting": "[5]; [13]", "value": 1.6}, {"measurement": "Overall off-taste compared with mogroside V", "setting": "[5]; aftertaste, in words", "value": "lower overall off-taste"}, {"measurement": "Lingering sweetness aftertaste compared with Reb M", "setting": "[5]; at both 250 ppm and 500 ppm, in words", "value": "significantly improved"}, {"measurement": "Bitterness compared with mogroside V", "setting": "[5]; in words", "value": "lower bitterness"}, {"measurement": "Global flavor intensity compared with mogroside V", "setting": "[5]; in words", "value": "higher"}, {"measurement": "Sweetness compared with mogroside V", "setting": "[5]; in words", "value": "higher sweetness"}, {"measurement": "Thickness/body compared with mogroside V", "setting": "[5]; in words", "value": "higher thickness/body"}, {"measurement": "Global flavor intensity compared with Reb M", "setting": "[5]; [14]", "value": "lower global flavor intensity"}, {"measurement": "Sweetness compared with Reb M", "setting": "[5]; [14]", "value": "somewhat less sweet"}, {"measurement": "Licorice Aftertaste", "setting": "[6]; [15]", "value": 2.1}, {"measurement": "Lingering Sweetness", "setting": "[6]; [15]", "value": 3.9}, {"measurement": "Mouth Coating", "setting": "[6]; [15]", "value": 1.9}, {"measurement": "Overall Off-Taste", "setting": "[6]; [15]", "value": 3.3}, {"measurement": "Delayed Sweetness", "setting": "[6]; [16]", "value": 3.5}, {"measurement": "Sweetness", "setting": "[6]; [16]", "value": 4.9}, {"measurement": "Delayed sweetness compared with Reb M", "setting": "[6]; 250 ppm, in words", "value": "slightly increased delayed sweetness"}, {"measurement": "Sweetness compared with Reb M", "setting": "[6]; 250 ppm, in words", "value": "overall lower sweetness"}, {"measurement": "Licorice Aftertaste", "setting": "[7]; [17]", "value": 0.8}, {"measurement": "Lingering Sweetness", "setting": "[7]; [17]", "value": 2.6}, {"measurement": "Mouth Coating", "setting": "[7]; [17]", "value": 2.9}, {"measurement": "Overall Off-Taste", "setting": "[7]; [17]", "value": 2.1}, {"measurement": "Astringence", "setting": "[7]; [18]", "value": 0.5}, {"measurement": "Delayed Sweetness", "setting": "[7]; [18]", "value": 1.7}, {"measurement": "Fattiness", "setting": "[7]; [18]", "value": 2.9}, {"measurement": "Sourness", "setting": "[7]; [18]", "value": 0.5}, {"measurement": "Sweetness", "setting": "[7]; [18]", "value": 5.1}, {"measurement": "Licorice Aftertaste", "setting": "[7]; [19]", "value": 1.4}, {"measurement": "Lingering Sweetness", "setting": "[7]; [19]", "value": 3.7}, {"measurement": "Mouth Coating", "setting": "[7]; [19]", "value": 0.9}, {"measurement": "Overall Off-Taste", "setting": "[7]; [19]", "value": 2.0}, {"measurement": "Astringence", "setting": "[7]; [20]", "value": 0.7}, {"measurement": "Bitterness", "setting": "[7]; [20]", "value": 1.0}, {"measurement": "Delayed Sweetness", "setting": "[7]; [20]", "value": 2.5}, {"measurement": "Fattiness", "setting": "[7]; [20]", "value": 3.9}, {"measurement": "Global Flavor Intensity", "setting": "[7]; [20]", "value": 4.6}, {"measurement": "Sourness", "setting": "[7]; [20]", "value": 0.8}, {"measurement": "Sweetness", "setting": "[7]; [20]", "value": 6.8}, {"measurement": "Bitterness compared with mogroside V", "setting": "[7]; at 400 ppm, in words", "value": "lower bitterness"}, {"measurement": "Fattiness compared with mogroside V", "setting": "[7]; at 400 ppm, in words", "value": "higher"}, {"measurement": "Global flavor intensity compared with mogroside V", "setting": "[7]; at 400 ppm, in words", "value": "higher"}, {"measurement": "Sweetness compared with Reb M", "setting": "[7]; at both 200 ppm and 400 ppm, in words", "value": "increased sweetness"}, {"measurement": "Sweetness compared with mogroside V", "setting": "[7]; in words", "value": "higher sweetness"}]}
